Experimental findings from patent US4650791A, “Certain 3-alkoxy-2-cyclic-imido-propyl-phosphate-ethyl-cyclic ammonium hydroxide inner salts which inhibit activities of platelet activating factor” (Takedo Chemical Industries, Ltd., priority 1984, dated 1987) are described below.

The subject of assay [1] is PAF-induced platelet aggregation (PRP). The experiment in a line: Activity on inhibiting platelet aggregation (PRP, PAF-induced). The assay is classed as cell-based. The settings on record: male rabbit, PAF 1×10^-8 M, 37° C. As to the method: Activity on inhibiting platelet aggregation
Using an injection syringe containing 3.15% citric acid (in a ratio of 1 part per 9 parts of blood) as an anticoagulant, the blood was directly collected from a male rabbit. Then, at room temperature, the blood was centrifuged at 800 r.p.m. for 10 minutes to harvest a platelet rich plasma (PRP). The remaining blood was further centrifuged at 3,000 r.p.m. for 10 minutes to separate a platelet poor plasma (PPP) as a supernatant. The PRP was diluted with the PPP to adjust the number of platelets to about 0.5 million (5×10^5) per μl. This PRP (250 μl) was stirred at 37° C. for 2 minutes, and the test compound was added to the PRP. After stirring the mixture for 2 minutes, 1×10^-8 M of PAF was added to the mixture. The degree of platelet aggregation was determined with a platelet aggregometer (Rika Denki). The aggregation inhibitory activity of the test compound was estimated from the inhibition rate relative to the maximum transmission (maximum aggregation) of control PRP by PAF.

The subject of assay [2] is PAF-induced platelet aggregation (washed PRP). Put plainly: Activity to inhibit PAF in platelet aggregation (washed PRP). The class given is cell-based. The note with it: Oryctolagus cuniculus, male rabbit, compound 3×10^-5 M, PAF 3×10^-5 M, 37° C., read-out: inhibition rate relative to the maximum transmission (maximum aggregation) of control PRP by PAF. As to the method:
Activity to inhibit PAF in platelet aggregation
Using an injection syringe containing a 3.15% solution of citric acid (in a ratio of 1 part per 9 parts of blood) as an anticoagulant, the blood was directly collected from a male rabbit. Then, at room temperature, the blood was centrifuged at 1,000 r.p.m. for 10 minutes to harvest a platelet rich plasm (PRP). This PRP was further centrifuged at 1,400 r.p.m. for 15 minutes to give platelet pellets. The pellets were suspended in Ca^++ -free Tyrode solution (containing 0.25% of gelatin) to give a washed PRP. This washed PRP (250 μl) was stirred at 37° C. for 2 minutes, then 25 μl of a 0.2 to 0.5 mM Ca^++ solution was added, and the mixture was further stirred for 30 seconds. Then, the compound obtained in Example 5 was added to a concentration of 3×10^-5 M. After stirring the mixture for 2 minutes, 3×10^-5 M of PAF was added. The degree of platelet aggregation was determined with a platelet aggregometer (Rika Denki). The activity of the test drug was estimated from the inhibition rate relative to the maximum transmission (maximum aggregation) of control PRP by PAF. The inhibition rate thus found was 70%.

Consider `CCCCCCCCCCCCCCCCCCOCC(COP(=O)([O-])OCC[n+]1ccsc1)N1C(=O)c2ccccc2C1=O` (centres unmarked) [Example 6, 3-Octadecyloxy-2-phthalimidopropyl 2-thiazolioethyl phosphate], for which the “Inhibition rate (%)” value in assay [1] (test compound 3 × 10^-5 (M)) is listed as 100%; in assay [1] (test compound 3 × 10^-6 (M)), 96%.
One may read the inhibition as the drop in the measured response relative to a control, in per cent. Regarding `CCCCCCCCCCCCCCCCCCOCC(COP(=O)([O-])OCC[n+]1ccccc1)N1C(=O)c2ccccc2C1=O` (centres unmarked) [Example 5, 3-Octadecyloxy-2-phthalimidopropyl 2-pyridinioethyl phosphate], in assay [2], the inhibition at 30 µM worked out at 70%.
Turning to `CCCCCCCCCCCCCCCCCCOCC(COP(=O)([O-])OCC[n+]1ccsc1)N1C(=O)CCC1=O` (centres unmarked) [Example 12, 3-Octadecyloxy-2-succinimidopropyl 2-thiazolioethyl phosphate], the “Inhibition rate (%)” value is 100% in assay [1] (test compound 3 × 10^-5 (M)) and 32% in assay [1] (test compound 3 × 10^-6 (M)).
